SMILES strings stand for the structures.

In general, melting point refers to the temperature of the solid-liquid transition.

One data set addresses T1, BSA (Bos taurus, UniProt P02769).
T1 construct: purchased HiMedia (Mumbai, India)
Briefly: Three-dimensional fluorescence spectra of BSA. It counts as binding, bovine. The note with it: BSA 10 μM + compound 10 μM, pH 7.4, 298 K. The text has this:
To investigate the micro environmental changes in BSA/HSA during interaction with the compounds, three dimensional fluorescence spectroscopic studies have been performed. The changes observed in 3D emission spectra and contour lines of serum albumins in the absence and presence of ligands and complexes are given in Fig. 15, 16, S34 and S35 in the ESI ^† and their corresponding characteristic parameters are provided in Table 5. The emission spectra of serum albumins such as BSA and HSA have shown three characteristic peaks – peaks A and C corresponds to first and second order Rayleigh scattering and peak B corresponds to the spectral characteristics of Trp and Tyr residues of proteins.[57] The emission intensity of Rayleigh first order scattering peak increased upon adding the compounds to serum albumins. […] The fluorescence intensity of peak ‘B’ corresponding to the tryptophan and tyrosine residues decreased with slight blue shift. From the results, it is inferred that the molecular microenvironment and conformational changes of protein occurred after interaction with the complexes and ligands.
Fig. 15 Three-dimensional fluorescence spectra of BSA in the absence and presence of ruthenium(II) complexes 1–4 (pH 7.4, 298 K, [BSA] = 10 μM, [complex] = 10 μM).
Fig. S34. Three-dimensional fluorescence spectra of BSA in the absence and presence of
ligands H 2L1-4 (pH 7.4, 298 K, [HSA] =10 µM, [Ligand] =10 µM) […]

Another data set deals with CT-DNA. The data set can be described thus: EB-DNA competitive binding (fluorescence quenching). Also on record: species or system calf. The note with it: compounds 10–100 μM; for quenching of the emission band of DNA-bound EB: % of the initial fluorescence intensity; for Quenching constant KSV: Stern–Volmer, DNA-EB 10 μM. Here is the method:
The competitive binding experiments were carried out on the EB–CT-DNA system by varying the concentrations of the ligands and complexes to get further information about the binding mode of compounds with DNA. In our studies, it was noted that upon concomitant addition of the compounds to the EB-DNA system, emission intensity decreased progressively, indicative of competition between EB and compounds towards CT-DNA in binding/chelation (Fig. S26 ^†). The reduction of the fluorescence emission intensity gives criteria to investigate the DNA binding propensity of the compounds and stacking interaction (intercalation) between the adjacent DNA base pairs.[45] […] This provides a direct evidence for the intercalative binding mode of the compounds with DNA.
Further quantitative measurement of the magnitude of interaction was ascertained by the classical Stern–Volmer equation. Quenching constant KSV is used to evaluate the quenching efficiency and is obtained from the slope of Io/I versus [Q] […] Further, the calculated KSV values of the compounds are significant when compared to the reported values.[30,31]
Supplementary Information
All the experiments involving CT-DNA binding were carried out in deionised water with tris(hydroxymethyl)-aminomethane (Tris, 5 mM) and sodium chloride (50 mM) and adjusted to pH 7.2 with hydrochloric acid at room temperature. The concentration of CT-DNA was determined by UV absorbance at 260 nm. Solutions of CT-DNA in Tris-HCl buffer gave a ratio of UV absorbance at 260 and 280 nm, A260/A280, of approximately 1.9, […]
The molar absorption coefficient, […]
[DNA]/[εa-εf]) = [DNA]/[ε b-εf]+1/Kb[εb-εf] (S1) […]
EB-DNA. The change in the fluorescence intensity was recorded. Before measurements, the system was shaken well and incubated at room temperature for 5 min. […]

Another data set has as its system MCF-7 cells. The data set can be described thus: Lactate dehydrogenase release. The format is cell-based, human. The note with it: MCF-7, IC50 concentrations, 48 h. The procedure:
(§1) LDH is a stable cytoplasmic enzyme that is released into the culture medium following loss of membrane integrity and serves as a general mean to assess cytotoxicity resulting from chemical compounds or environmental toxic factors.[68] In the present study, LDH leakage into the culture medium of the compounds treated A549 and MCF-7 cells was analyzed. […] The results confirmed the cytotoxic effect of the ligands and complexes on lung and breast cancer cell lines. The compounds could induce LDH leakage as high as that of cisplatin. […] Error bars represent the standard mean error (n = 6).

The next data set relates to A549 cells. Briefly: Lactate dehydrogenase release. It counts as cell-based, human. The note with it: A549, IC50 concentrations, 48 h. The procedure: as §1

T1 sequence (P02769 25-607): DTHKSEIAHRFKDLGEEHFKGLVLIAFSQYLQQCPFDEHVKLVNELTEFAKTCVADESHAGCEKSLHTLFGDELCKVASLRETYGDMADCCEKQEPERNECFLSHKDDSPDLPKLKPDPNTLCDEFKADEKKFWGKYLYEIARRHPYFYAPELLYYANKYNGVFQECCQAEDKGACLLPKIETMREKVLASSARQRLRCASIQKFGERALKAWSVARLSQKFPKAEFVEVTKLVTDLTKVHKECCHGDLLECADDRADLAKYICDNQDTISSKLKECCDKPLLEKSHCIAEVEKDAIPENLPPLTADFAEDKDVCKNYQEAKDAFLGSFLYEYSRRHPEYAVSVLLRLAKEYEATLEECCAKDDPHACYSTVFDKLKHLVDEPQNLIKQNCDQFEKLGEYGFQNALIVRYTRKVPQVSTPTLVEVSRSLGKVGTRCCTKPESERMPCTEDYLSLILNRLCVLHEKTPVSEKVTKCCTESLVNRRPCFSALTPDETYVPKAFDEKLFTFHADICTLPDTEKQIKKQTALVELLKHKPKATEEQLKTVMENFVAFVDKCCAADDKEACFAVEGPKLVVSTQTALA

Take `COc1ccc2[c]3c(c(=O)oc2c1)C(C)=[N+]1N=C(N)[S][Ru-4]31([C]#[O+])([P+](c1ccccc1)(c1ccccc1)c1ccccc1)[P+](c1ccccc1)(c1ccccc1)c1ccccc1` [Complex 1, [Ru(7MAC-tsc)(CO)(PPh3)2]]: at BSA, the “Fluorescence peaks Intensity (F)” value was 395.56, the “Fluorescence peaks Peak position λex/λem” value was 280/338, the “Fluorescence peaks Stokes Δλ” value is 58 nm and the “Rayleigh scattering peaks Intensity (F)” value is reported as 867.32. Further, in the data set with CT-DNA, the “quenching of the emission band of DNA-bound EB” value (from here on “quenching … of DNA-bound EB”) is 27.83% and the “Quenching constant KSV” value was 4.16 ± 0.002 × 10^3 M^−1.
In the case of `CNC1=N[N+]2=C(C)c3[c](c4ccc(OC)cc4oc3=O)[Ru-4]2([C]#[O+])([P+](c2ccccc2)(c2ccccc2)c2ccccc2)([P+](c2ccccc2)(c2ccccc2)c2ccccc2)[S]1` [Complex 2, [Ru(7MAC-mtsc)(CO)(PPh3)2]], at BSA, the “Fluorescence peaks Intensity (F)” value turned out to be 372.76, the “Fluorescence peaks Peak position λex/λem” value is 280/339, the “Fluorescence peaks Stokes Δλ” value is given as 59 nm and the “Rayleigh scattering peaks Intensity (F)” value turned out to be 837.83. Further, in the data set with CT-DNA, the “quenching … of DNA-bound EB” value is on record as 36.67% and the “Quenching constant KSV” value is on record as 5.52 ± 0.009 × 10^3 M^−1.
As for `CCNC1=N[N+]2=C(C)c3[c](c4ccc(OC)cc4oc3=O)[Ru-4]2([C]#[O+])([P+](c2ccccc2)(c2ccccc2)c2ccccc2)([P+](c2ccccc2)(c2ccccc2)c2ccccc2)[S]1` [Complex 3, [Ru(7MAC-etsc)(CO)(PPh3)2]], at BSA, the “Fluorescence peaks Intensity (F)” value came out at 304.43, the “Fluorescence peaks Peak position λex/λem” value is listed as 280/339, the “Fluorescence peaks Stokes Δλ” value was 59 nm and the “Rayleigh scattering peaks Intensity (F)” value is 958.23. Also, in the data set on CT-DNA, the “quenching … of DNA-bound EB” value amounted to 36.99% and the “Quenching constant KSV” value was 5.62 ± 0.003 × 10^3 M^−1. In the data set with MCF-7 cells, the “LDH release into the culture medium” value was “more potent in inducing LDH leakage into the culture than the rest”. Besides, the “LDH release into the culture medium” value in the data set on A549 cells is reported as “more potent in inducing LDH leakage into the culture than the rest”.
As for `COc1ccc2[c]3c(c(=O)oc2c1)C(C)=[N+]1N=C(Nc2ccccc2)[S][Ru-4]31([C]#[O+])([P+](c1ccccc1)(c1ccccc1)c1ccccc1)[P+](c1ccccc1)(c1ccccc1)c1ccccc1` [Complex 4, [Ru(7MAC-ptsc)(CO)(PPh3)2]], on BSA, the “Fluorescence peaks Intensity (F)” value is 368.76, the “Fluorescence peaks Peak position λex/λem” value is recorded as 280/340, the “Fluorescence peaks Stokes Δλ” value is given as 60 nm and the “Rayleigh scattering peaks Intensity (F)” value is on record as 741.59. For the same compound, in the data set with CT-DNA, the “quenching … of DNA-bound EB” value stood at 28.92% and the “Quenching constant KSV” value is reported as 4.00 ± 0.002 × 10^3 M^−1.
`COc1ccc2cc(C(C)=NNC(N)=S)c(=O)oc2c1` [H2L^1, ((1E)-1-(1-(7-methoxy-2-oxo-2H-chromen-3-yl)ethylidene)thiosemicarbazone)] gave a melting point of 213 °C.
As for `CNC(=S)NN=C(C)c1cc2ccc(OC)cc2oc1=O` [H2L^2, ((1E)-1-(1-(7-methoxy-2-oxo-2H-chromen-3-yl)ethylidene) 4(N)-methylthiosemicarbazone)], the melting point worked out at 117 °C.
As to `CCNC(=S)NN=C(C)c1cc2ccc(OC)cc2oc1=O` [H2L^3, ((1E)-1-(1-(7-methoxy-2-oxo-2H-chromen-3-yl)ethylidene) 4(N)-ethylthiosemicarbazone)], the melting point came to 174 °C.
The same measure, in the same setting: under `COc1ccc2cc(/C(C)=N\NC(=S)Nc3ccccc3)c(=O)oc2c1` [H2L^4, ((1E)-1-(1-(7-methoxy-2-oxo-2H-chromen-3-yl)ethylidene) 4(N)-phenylthiosemicarbazone)] stands 186 °C.

The record behind these values is publication PMC9077138, “An investigation on 3-acetyl-7-methoxy-coumarin Schiff bases and their Ru(II) metallates with potent antiproliferative activity and enhanced LDH and NO release” (RSC Advances, 2018).
